According to PubChem BioAssay (NCI):
“And” between values parts separate entries of the source, which are not always exact repeats. Identical values can stand only once.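 Exposure lasted 48 hours, with cells grown in 96-well plates and compounds tested at five concentrations. GI50 marks 50% less growth. At the TGI there is no net growth.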

Experiments:
Assay in all cases: NCI-60 cell line screen, 48 h
COLO 205 colon = test system: COLO 205 colon
EKVX NSCLC = test system: EKVX NSCLC
HCT-116 colon = test system: HCT-116 colon
HT29 colon = test system: HT29 colon
K-562 leukemia = test system: K-562 leukemia
MOLT-4 leukemia = test system: MOLT-4 leukemia
OVCAR-4 ovarian = test system: OVCAR-4 ovarian
SK-MEL-5 melanoma = test system: SK-MEL-5 melanoma
SN12C renal = test system: SN12C renal
UACC-257 melanoma = test system: UACC-257 melanoma

Row | Structure (SMILES) | GI50 (COLO 205 colon) | TGI (COLO 205 colon) | GI50 (EKVX NSCLC) | TGI (EKVX NSCLC) | GI50 (HCT-116 colon) | TGI (HCT-116 colon) | GI50 (HT29 colon) | TGI (HT29 colon) | GI50 (K-562 leukemia) | TGI (K-562 leukemia) | GI50 (MOLT-4 leukemia) | TGI (MOLT-4 leukemia) | GI50 (OVCAR-4 ovarian) | TGI (OVCAR-4 ovarian) | GI50 (SK-MEL-5 melanoma) | TGI (SK-MEL-5 melanoma) | GI50 (SN12C renal) | TGI (SN12C renal) | GI50 (UACC-257 melanoma) | TGI (UACC-257 melanoma)
1 | C=C1C(=O)O[C@H]2[C@H]1CC/C(COC(=O)c1ccc(Br)cc1)=C\CC[C@@]1(C)O[C@@H]21 | 1.79 µM | 3.51 µM | 1.76 µM | 4.05 µM | 0.415 µM | 1.58 µM | 1.13 µM | 3.43 µM | 1.2 µM | 10.3 µM | 1.17 µM | 6.06 µM | 1.57 µM | 3.68 µM | 1.81 µM | 3.28 µM | 1.63 µM | 3.69 µM | 1.65 µM | 3.35 µM
2 | CC(=O)O[C@H]1Cc2c([nH]c3ccccc23)[C@@H](c2ccc(Cl)cc2)N1C(=O)CCNC(C)(C)C | 3.47 µM | 7.7 µM | 3.74 µM | 7.9 µM | 1.64 µM | 6.32 µM | 1.59 µM | 5.57 µM | 3.08 µM | 10.1 µM | 2.16 µM | 8.99 µM | 3.06 µM | 7.14 µM | 1.28 µM | 4.61 µM | 4.24 µM | 8.54 µM | 4.99 µM | 9.66 µM
3 | c1ccc(-c2nn(-c3ccccc3)[n+](-c3ccccc3-c3ccccc3)n2)cc1 | 0.205 µM | 0.856 µM | 0.687 µM | > 74.6 µM | 0.699 µM | > 33.3 µM | 0.673 µM | 18.4 µM | 0.456 µM | 15.3 µM | 1.8 µM | 17.6 µM | 0.382 µM | 24.5 µM | 0.409 µM | 2.2 µM | 1.82 µM | 15.5 µM | 0.339 µM | 2.72 µM
4 | CC1CC(=O)CC[C@@H]1OCc1ccccc1 (some centres not stated) | – | > 100 µM | – | > 100 µM | – | > 100 µM | – | > 100 µM | – | > 100 µM | – | > 100 µM | – | > 100 µM | – | > 100 µM | – | > 100 µM | – | > 100 µM
5 | Cn1ccnc1C(=O)/C=C/c1ccc(CC(=O)Nc2cc(F)c(F)c(F)c2)cc1 | 2.53 µM | 7.08 µM | 3.51 µM | 7.41 µM | 1.22 µM | 4.42 µM | 0.861 µM | 12.7 µM | 0.808 µM | > 25 µM | 0.84 µM | 12.1 µM | 2.25 µM | > 25 µM | 3.25 µM | 6.47 µM | 1.4 µM | 8.61 µM | 3.59 µM | 10.1 µM
6 | NS(=O)(=O)c1ccc(N=Nc2cc3ccccc3c(C(=O)O)c2O)cc1 | – | > 100 µM | – | > 100 µM | – | > 100 µM | – | > 100 µM | – | > 100 µM | – | > 100 µM | – | > 80.9 µM | – | > 100 µM | – | > 100 µM | – | > 92.3 µM
7 | COc1ccc(CN[C@H]2CCc3cc(OC)c(OC)c(OC)c3-c3ccc(SC)c(=O)cc32)c(OC)c1OC | < 0.01 µM | 0.0645 µM and 0.0155 µM | – | > 100 µM | < 0.01 µM | 0.0597 µM and 0.133 µM | – | 0.03 µM | < 0.01 µM | 1.35 µM | – | > 100 µM | – | > 100 µM | – | 0.257 µM | – | 59.8 µM | 0.037 µM | > 100 µM
8 | O=[N+]([O-])C1(CO)COC2(OC1)c1ccccc1-c1ccccc12 | – | > 82.4 µM | – | > 100 µM | – | 88.7 µM | – | > 100 µM | – | > 87 µM | – | > 85.2 µM | – | > 100 µM | – | > 100 µM | – | > 100 µM | – | > 100 µM
9 | O=C(N/N=C\c1cc(Br)cc(Br)c1O)N/N=C/c1cc(Br)cc(Br)c1O | 3.92 µM | 14.6 µM | 4.09 µM | 17.8 µM | 5.96 µM | 22.3 µM | 5.93 µM | 18.3 µM | 0.7 µM | 14.3 µM | 2.14 µM | 11.4 µM | 2.5 µM | 12.9 µM | 1.83 µM | 4.69 µM | 4.56 µM | 17.8 µM | 2.48 µM | 8.92 µM
10 | COC(=O)C([O][Ge]([CH3])([CH3])[CH3])c1ccccc1 (configuration not stated) | > 100 µM | > 100 µM | > 100 µM | > 100 µM | > 100 µM | > 100 µM | > 100 µM | > 100 µM | > 100 µM | > 100 µM | > 100 µM | > 100 µM | > 100 µM | > 100 µM | > 100 µM | > 100 µM | > 100 µM | > 100 µM | > 100 µM | > 100 µM
11 | C=CCN1C(=O)C/C(=C2/CCC(=O)N2CC=C)C1=O | – | > 100 µM | – | > 100 µM | – | > 100 µM | – | > 100 µM | – | > 100 µM | – | > 100 µM | – | > 100 µM | – | > 100 µM | – | > 100 µM | – | > 100 µM
12 | CCc1cc(Nc2nccc(-c3c(-c4ccc(OC)c(C(=O)Nc5c(F)cccc5F)c4)nc4ccccn34)n2)c(OC)cc1N1CCC(N2CCN(S(C)(=O)=O)CC2)CC1 | – | > 100 µM | > 100 µM | > 100 µM | 88.8 µM | > 100 µM | – | > 100 µM | > 100 µM | > 100 µM | > 100 µM | > 100 µM | > 100 µM | > 100 µM | > 64.8 µM | > 100 µM | > 100 µM | > 100 µM | > 40.1 µM | > 100 µM
13 | N#CC(N)(C(=O)C(=O)NCCCNC(=O)C(=O)C(N)(C#N)c1ccc(Cl)cc1)c1ccc(Cl)cc1 (configuration not stated) | – | > 100 µM | – | > 100 µM | – | > 100 µM | – | > 100 µM | – | > 100 µM | – | > 100 µM | – | > 100 µM | – | > 100 µM | – | > 100 µM | – | > 100 µM
14 | Fc1ccc(-c2ncn(C3CCNCC3)c2-c2ccnc(Oc3ccc(Oc4ccccc4)cc3)n2)cc1 | 2.48 µM | 6.23 µM | 3.87 µM | 7.74 µM | 3.47 µM | 6.76 µM | 2.13 µM | 5.23 µM | 1.95 µM | 5.74 µM | 3.31 µM | 7.59 µM | 3.78 µM | 7.27 µM | 3.55 µM | 6.82 µM | 3.57 µM | 6.96 µM | 4.71 µM | 8.54 µM
15 | COc1ccc(OC)c(/C=C/C(=O)c2ccc(SC)cc2)c1 | 5.57 µM | > 100 µM | 16.8 µM | 39.4 µM | 2.57 µM | 7.77 µM | 3.89 µM | > 100 µM | 2.72 µM | 7.44 µM | 3.26 µM | > 100 µM | 61.1 µM | > 100 µM | 3.31 µM | 14 µM | 17.2 µM | 33.9 µM | 16.9 µM | 33.8 µM
16 | CCOC(=O)Nc1ccc2nc(Sc3ccc(Cl)cc3)sc2c1 | 1.45 µM | 19 µM | 8.28 µM | > 82.6 µM | 1.19 µM | 39.3 µM | 0.518 µM | 13.3 µM | 0.423 µM | > 100 µM | 4.2 µM | > 87.6 µM | 20.7 µM | > 100 µM | 1.18 µM | 5.07 µM | 6.49 µM | > 100 µM | 9.87 µM | 45.2 µM
17 | Cc1ccc(S(=O)(=O)N/N=C/CN2C(=O)c3ccccc3C2=O)cc1 | – | > 100 µM | – | > 100 µM | – | > 100 µM | – | > 100 µM | – | > 100 µM | – | > 100 µM | – | > 100 µM | – | > 100 µM | – | > 100 µM | – | > 100 µM
18 | CC(C)N(C(=O)C12C3C4C5C3C1(C(=O)N(C(C)C)C(C)C)C5C42)C(C)C (configuration not stated) | – | > 60.6 µM | – | > 100 µM | – | > 57.8 µM | – | > 100 µM | – | > 61.5 µM | – | > 100 µM | – | > 100 µM | – | > 100 µM | – | > 100 µM | – | > 100 µM
19 | CCOC(=O)CCC(NC(=O)c1ccc(Nc2nc3cc(N)cc(N)c3nc2-c2ccccc2)cc1)C(=O)OCC (configuration not stated) | > 29.7 µM | > 100 µM | > 53.8 µM | > 100 µM | > 38.7 µM | > 71.6 µM | 83.6 µM | > 100 µM | 42.5 µM | > 100 µM | 9.9 µM | > 27.2 µM | 44.5 µM | > 100 µM | 12.6 µM | 44.6 µM | 26.2 µM | 58.1 µM | 6.04 µM | 13.7 µM
20 | COc1ccc2nc(NC(=O)C(=O)C(C#N)c3ccc(CC#N)cc3)sc2c1 (configuration not stated) | – | > 100 µM | – | > 100 µM | – | > 100 µM | – | > 100 µM | – | > 100 µM | – | > 100 µM | – | > 100 µM | – | > 100 µM | – | > 100 µM | – | > 100 µM
21 | Nc1ccc(C(=O)N/C(=C\c2ccc3c(c2)OCO3)c2nc3ccc4c(c3[nH]2)C(=O)c2ccccc2C4=O)cc1 | – | > 100 µM | – | > 100 µM | – | > 100 µM | – | > 100 µM | – | > 100 µM | – | > 100 µM | – | > 100 µM | – | > 100 µM | – | > 100 µM | – | > 100 µM
22 | COc1ccc(C(=O)C(CN(C)C)c2ccccc2)cc1 (configuration not stated) | 2.26 µM | 4.21 µM | 14.1 µM | 34.1 µM | 0.707 µM | 1.95 µM | 3.8 µM | 21.4 µM | 4.17 µM | > 100 µM | 4.41 µM | > 100 µM | 5.34 µM | > 100 µM | 4.22 µM | 15.4 µM | 3.56 µM | 12.1 µM | 2.39 µM | 10.7 µM
23 | COc1cc2cc(Oc3ccc(NC(=O)Nc4cc(C(F)(F)F)cc(C(F)(F)F)c4)cc3)c(C)nc2cc1OCCN1CCCCC1 | 1.89 µM | 3.62 µM | 1.81 µM | 3.44 µM | 1.75 µM | 3.24 µM | 1.83 µM | 3.37 µM | 1.5 µM | 3.31 µM | 1.73 µM | 3.7 µM | 1.89 µM | 3.61 µM | 1.69 µM | 3.08 µM | 1.68 µM | 3.22 µM | 1.98 µM | 3.97 µM
24 | CC(C)C(NCc1c2ccccc2nc2ccccc12)C(=O)O (configuration not stated) | – | > 100 µM | – | > 100 µM | – | > 100 µM | – | > 100 µM | – | > 100 µM | – | 69.1 µM | – | 42.8 µM | – | > 100 µM | – | > 100 µM | – | > 100 µM
25 | COc1cccc(C2N3CCCCC3[C@@H]3c4[nH]c5ccccc5c4CCN23)c1OC (some centres not stated) | – | 29.2 µM | – | 32 µM | – | 31.1 µM | – | 25.5 µM | – | 30.1 µM | – | 36.6 µM | – | 31.5 µM | – | 30.6 µM | – | 31 µM | – | 30.1 µM
